Among the data in BindingDB's records for doi:10.1074/jbc.M112.443390 (The Ohio State University, 2013) are IC50 values, retold here.

Broadly, the IC50 is the concentration needed to halve the response being measured. Read a high IC50 as lower potency.

Assay [1] addresses T1, Gag-Pol polyprotein [A1275T] (Human immunodeficiency virus type 1 group M subtype B (isolate NY5), UniProt P12497, A1275T). The assay can be described thus: 3'-Processing Assay. The source says:
(§1) A recently reported time-resolved fluorescence assay [J. Biol. Chem. 287: 21189-21203] was used to quantify IN 3'-processing and strand transfer activities.

In assay [2] the target is T2, Gag-Pol polyprotein (Human immunodeficiency virus type 1 group M subtype B (isolate NY5), UniProt P12497). The assay can be described thus: 3'-Processing Assay.
Text: as §1

For assay [3], the target named is T1, Gag-Pol polyprotein [A1275T]. The assay can be described thus: Strand Trasnfer Assay.
Text: as §1

Assay [4] has as its target T2, Gag-Pol polyprotein. The assay is described as follows: Strand Trasnfer Assay.
Text: as §1

Structures are written as SMILES.

`Cc1nc2ccc(Br)cc2c(-c2ccc(Cl)cc2)c1C(OC(C)(C)C)C(=O)O` (stereo not drawn) [ALLINI-2]: the half-maximal inhibitory concentration (IC50) in assay [1] came out at 200 µM; against Gag-Pol polyprotein [2] it was 180 nM; in assay [3] it was 890 nM; against Gag-Pol polyprotein [4] it was 170 nM.
On to `CO[C@H](C(=O)O)c1c(C)nc2ccc(Br)cc2c1-c1ccc(Cl)cc1`, for which the concentration for half-maximal inhibition (IC50) is 261 µM in assay [1], 910 nM at Gag-Pol polyprotein [2], 4610 nM in assay [3] and 400 nM at Gag-Pol polyprotein [4].
